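Protocol summary: plate cells (96-well), add compound at 5 concentrations, incubate 48 h, interpolate endpoints linearly. Abbreviation: GI50, concentration required for 50% inhibition of growth.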 Activity calls are given as the source filed them. Rule as the data show it: active = GI50 up to about 1.1 µM and inactive = higher.
Legend:
Assay in all cases: growth of human tumour cells (NCI), 48 h
786-0 = tested on: 786-0
A498 = tested on: A498
A549 = tested on: A549
ACHN = tested on: ACHN
BT-549 = tested on: BT-549
CAKI-1 = tested on: CAKI-1
CCRF-CEM = tested on: CCRF-CEM
COLO 205 = tested on: COLO 205
DU-145 = tested on: DU-145
EKVX = tested on: EKVX
HCC 2998 = tested on: HCC 2998
HCT-116 = tested on: HCT-116
HCT-15 = tested on: HCT-15
HL-60 = tested on: HL-60
HOP-62 = tested on: HOP-62
HOP-92 = tested on: HOP-92
HT-29 = tested on: HT-29
Hs-578T = tested on: Hs-578T
IGROV-1 = tested on: IGROV-1
K562 = tested on: K562
KM12 = tested on: KM12
LOX IMVI = tested on: LOX IMVI
M14 = tested on: M14
MCF7 = tested on: MCF7
MDA-MB-231 = tested on: MDA-MB-231
MDA-MB-435 = tested on: MDA-MB-435
MOLT-4 = tested on: MOLT-4
Malme-3M = tested on: Malme-3M
NCI-H226 = tested on: NCI-H226
NCI-H23 = tested on: NCI-H23
NCI-H460 = tested on: NCI-H460
NCI-H522 = tested on: NCI-H522
NCI/ADR-RES = tested on: NCI/ADR-RES
OVCAR-3 = tested on: OVCAR-3
OVCAR-4 = tested on: OVCAR-4
OVCAR-5 = tested on: OVCAR-5
OVCAR-8 = tested on: OVCAR-8
PC-3 = tested on: PC-3
RPMI-8226 = tested on: RPMI-8226
RXF 393 = tested on: RXF 393
SF-268 = tested on: SF-268
SF-295 = tested on: SF-295
SF-539 = tested on: SF-539
SK-MEL-28 = tested on: SK-MEL-28
SK-MEL-2 = tested on: SK-MEL-2
SK-MEL-5 = tested on: SK-MEL-5
SN12C = tested on: SN12C
SNB-19 = tested on: SNB-19
SNB-75 = tested on: SNB-75
SR = tested on: SR
SW-620 = tested on: SW-620
T47D = tested on: T47D
TK-10 = tested on: TK-10
U-251 = tested on: U-251
UACC-257 = tested on: UACC-257
UACC-62 = tested on: UACC-62
UO-31 = tested on: UO-31
MDA-N = tested on: MDA-N
SK-OV-3 = tested on: SK-OV-3

What does the source list for `ClCc1nc2ccccc2[nH]1`?
GI50 (786-0): > 100 µM (inactive); GI50 (A498): > 100 µM (inactive); GI50 (A549): > 100 µM (inactive); GI50 (ACHN): 85.1 µM (inactive); GI50 (BT-549): 42.8 µM (inactive); GI50 (CAKI-1): > 100 µM (inactive); GI50 (CCRF-CEM): > 100 µM (inactive); GI50 (COLO 205): > 100 µM (inactive); GI50 (DU-145): > 100 µM (inactive); GI50 (EKVX): > 100 µM (inactive); GI50 (HCC 2998): > 100 µM (inactive); GI50 (HCT-116): > 100 µM (inactive); GI50 (HCT-15): > 100 µM; GI50 (HL-60): > 100 µM (inactive); GI50 (HOP-62): > 100 µM (inactive); GI50 (HOP-92): > 100 µM (inactive); GI50 (HT-29): > 100 µM (inactive); GI50 (Hs-578T): > 100 µM (inactive); GI50 (IGROV-1): > 100 µM (inactive); GI50 (K562): > 100 µM (inactive); GI50 (KM12): > 100 µM (inactive); GI50 (LOX IMVI): 37.2 µM (inactive); GI50 (M14): > 100 µM (inactive); GI50 (MCF7): 99.1 µM (inactive); GI50 (MDA-MB-231): > 100 µM (inactive); GI50 (MDA-MB-435): > 100 µM (inactive); GI50 (MOLT-4): 54 µM (inactive); GI50 (Malme-3M): 34.5 µM (inactive); GI50 (NCI-H226): > 100 µM (inactive); GI50 (NCI-H23): > 100 µM (inactive); GI50 (NCI-H460): > 100 µM (inactive); GI50 (NCI-H522): > 100 µM (inactive); GI50 (NCI/ADR-RES): > 100 µM (inactive); GI50 (OVCAR-3): > 100 µM (inactive); GI50 (OVCAR-4): > 100 µM (inactive); GI50 (OVCAR-5): > 100 µM (inactive); GI50 (OVCAR-8): > 100 µM (inactive); GI50 (PC-3): > 100 µM (inactive); GI50 (RPMI-8226): > 100 µM (inactive); GI50 (RXF 393): > 100 µM (inactive); GI50 (SF-268): > 100 µM (inactive); GI50 (SF-295): > 100 µM (inactive); GI50 (SF-539): > 100 µM (inactive); GI50 (SK-MEL-28): > 100 µM (inactive); GI50 (SK-MEL-2): > 100 µM (inactive); GI50 (SK-MEL-5): > 100 µM (inactive); GI50 (SN12C): > 100 µM (inactive); GI50 (SNB-19): > 100 µM (inactive); GI50 (SNB-75): 66.8 µM (inactive); GI50 (SR): 56 µM (inactive); GI50 (SW-620): > 100 µM (inactive); GI50 (T47D): > 100 µM (inactive); GI50 (TK-10): > 100 µM (inactive); GI50 (U-251): > 100 µM (inactive); GI50 (UACC-257): > 100 µM (inactive); GI50 (UACC-62): > 100 µM (inactive); GI50 (UO-31): > 100 µM (inactive)

For `O=C(c1ccccc1)c1ccc(COc2ccc(C(c3c(O)c4ccccc4oc3=O)c3c(O)c4ccccc4oc3=O)cc2)cc1`, which GI50 (786-0) is on record?
The GI50 was 23.6 µM (inactive).

And the GI50 (A549)?
Its GI50 is 26.2 µM (inactive).

And the GI50 (ACHN)?
The GI50 was 19.3 µM (inactive).

And the GI50 (CAKI-1)?
Its GI50 is 22.8 µM (inactive).

And the GI50 (CCRF-CEM)?
The GI50 was 3.84 µM (inactive).

What about the GI50 (COLO 205) of the same molecule?
The GI50 was 20.2 µM (inactive).

And the GI50 (DU-145)?
The GI50 was 59.8 µM (inactive).

What about the GI50 (EKVX) of the same molecule?
The GI50 was 19.8 µM (inactive).

And the GI50 (HCC 2998)?
Its GI50 is 18.5 µM (inactive).

And the GI50 (HCT-116)?
Its GI50 is 33.3 µM (inactive).

And the GI50 (HCT-15)?
Its GI50 is 37.3 µM.

And the GI50 (HOP-62)?
The GI50 was 20.5 µM (inactive).

And the GI50 (HT-29)?
The GI50 was 18.3 µM (inactive).

And the GI50 (Hs-578T)?
The GI50 was 29.4 µM (inactive).

What about the GI50 (IGROV-1) of the same molecule?
The GI50 was 13.5 µM (inactive).

What about the GI50 (K562) of the same molecule?
The GI50 was 19.9 µM (inactive).

What about the GI50 (KM12) of the same molecule?
The GI50 was 16.1 µM (inactive).

And the GI50 (LOX IMVI)?
The GI50 was 23.9 µM (inactive).

What about the GI50 (MCF7) of the same molecule?
Its GI50 is 27.8 µM (inactive).

And the GI50 (MDA-MB-231)?
Its GI50 is 34.3 µM (inactive).

What about the GI50 (MDA-MB-435) of the same molecule?
Its GI50 is 20.2 µM (inactive).

And the GI50 (MDA-N)?
Its GI50 is 26.5 µM (inactive).

And the GI50 (MOLT-4)?
Its GI50 is 18.7 µM (inactive).

And the GI50 (NCI-H226)?
Its GI50 is 0.173 µM (active).

And the GI50 (NCI-H23)?
Its GI50 is 17.4 µM (inactive).

And the GI50 (NCI-H460)?
Its GI50 is 19.9 µM (inactive).

What about the GI50 (NCI-H522) of the same molecule?
The GI50 was 18.2 µM (inactive).

What about the GI50 (NCI/ADR-RES) of the same molecule?
Its GI50 is 19.5 µM (inactive).

And the GI50 (OVCAR-3)?
The GI50 was 18.9 µM (inactive).

And the GI50 (OVCAR-4)?
Its GI50 is 30.2 µM (inactive).

And the GI50 (OVCAR-5)?
The GI50 was 18.9 µM (inactive).

What about the GI50 (OVCAR-8) of the same molecule?
Its GI50 is 17.2 µM (inactive).

And the GI50 (PC-3)?
Its GI50 is 18.3 µM (inactive).

And the GI50 (RPMI-8226)?
The GI50 was 12.5 µM (inactive).

And the GI50 (RXF 393)?
Its GI50 is 19 µM (inactive).

What about the GI50 (SF-268) of the same molecule?
The GI50 was 31.9 µM (inactive).

What about the GI50 (SF-295) of the same molecule?
The GI50 was 19.4 µM (inactive).

What about the GI50 (SF-539) of the same molecule?
The GI50 was 23.9 µM (inactive).

What about the GI50 (SK-MEL-28) of the same molecule?
The GI50 was 17.9 µM (inactive).

And the GI50 (SK-MEL-2)?
The GI50 was 18.2 µM (inactive).

And the GI50 (SK-MEL-5)?
Its GI50 is 18.8 µM (inactive).

And the GI50 (SK-OV-3)?
The GI50 was 19.2 µM (inactive).

What about the GI50 (SN12C) of the same molecule?
The GI50 was 43.8 µM (inactive).

What about the GI50 (SNB-19) of the same molecule?
The GI50 was 23.4 µM (inactive).

What about the GI50 (SNB-75) of the same molecule?
The GI50 was 18.5 µM (inactive).

And the GI50 (SR)?
The GI50 was 35.9 µM (inactive).

And the GI50 (SW-620)?
Its GI50 is 25.7 µM (inactive).

What about the GI50 (T47D) of the same molecule?
The GI50 was 20.5 µM (inactive).

What about the GI50 (TK-10) of the same molecule?
Its GI50 is 17.1 µM (inactive).

And the GI50 (U-251)?
Its GI50 is 89.3 µM (inactive).

And the GI50 (UACC-257)?
The GI50 was 19.4 µM (inactive).

What about the GI50 (UACC-62) of the same molecule?
The GI50 was 14 µM (inactive).

What about the GI50 (UO-31) of the same molecule?
The GI50 was 27.7 µM (inactive).
